Reference: patent US7262212B2, “2,3-dihydro-6-nitroimidazo[2,1-b]oxazoles” (Otsuka Pharmaceutical Co., Ltd., priority 2002, dated 2007)

With `CC(C)(C)OC(=O)N1CCN(C(=O)N2CCC3(CC2)Cn2cc([N+](=O)[O-])nc2O3)CC1` the melting point was 260 to 265 °C (dec.). `C[C@]1(CN2CCC(N3CCCCC3)CC2)Cn2cc([N+](=O)[O-])nc2O1` gave a melting point of 163.4 to 164.9 °C. With `O=C(NCc1ccccc1)N1CCC2(CC1)Cn1cc([N+](=O)[O-])nc1O2` the melting point was 244 to 247 °C (dec.). With `CC1(CSc2nnnn2-c2ccccc2)Cn2cc([N+](=O)[O-])nc2O1` (stereo not drawn) the melting point was 140 to 147 °C. For `O=C(CN1CCC2(CC1)Cn1cc([N+](=O)[O-])nc1O2)N1CCN(Cc2ccc(C(F)(F)F)cc2)CC1`, the melting point was 195 to 197 °C (dec.). With `CC1(CN2CCCN(Cc3ccc(-c4ccccc4)cc3)CC2)Cn2cc([N+](=O)[O-])nc2O1` (stereo not drawn) the melting point was 138 to 142.2 °C. Work on `CC1(COc2ccc(C3CCN(Cc4ccc(OC(F)(F)F)cc4)CC3)cc2)Cn2cc([N+](=O)[O-])nc2O1` (stereo not drawn) yielded a melting point of 160.6 to 161.1 °C. `C[C@]1(CN2CCN(Cc3ccc(OC(F)(F)F)cc3)CC2)Cn2cc([N+](=O)[O-])nc2O1` showed a melting point of 137 to 138 °C. `CC(C)(C)OC(=O)c1ccc(NC(=O)N2CCC3(CC2)Cn2cc([N+](=O)[O-])nc2O3)cc1` gave a melting point of over 300 °C. Work on `CN(C[C@@]1(C)Cn2cc([N+](=O)[O-])nc2O1)c1ccccc1` yielded a melting point of 147 to 148 °C. For `CC1(COc2ccc(N3CCN(c4ccc(C(F)(F)F)cc4)CC3)cc2)Cn2cc([N+](=O)[O-])nc2O1` (stereo not drawn), the melting point was 230.7 to 233.1 °C. Work on `CC1(CN2CCN(C(=O)Nc3cccc(C(F)(F)F)c3)CC2)Cn2cc([N+](=O)[O-])nc2O1` (stereo not drawn) yielded a melting point of 183 to 184 °C. With `CC1(CN2CCC(Cc3ccc(OC(F)(F)F)cc3)CC2)Cn2cc([N+](=O)[O-])nc2O1` (stereo not drawn) the melting point was 143.5 to 145 °C. With `O=[N+]([O-])c1cn2c(n1)OC1(CCN(c3ccc(OC(F)(F)F)cc3)CC1)C2` the melting point was 235.9 to 236.8 °C (dec.). `C[C@]1(COc2ccc(C3CCN(C(=O)OCc4ccc(OC(F)(F)F)cc4)CC3)cc2)Cn2cc([N+](=O)[O-])nc2O1` gave a melting point of 202.5 to 204 °C. Work on `C[C@]1(COC(=O)N2CCCc3cc(Cl)ccc32)Cn2cc([N+](=O)[O-])nc2O1` yielded a melting point of 172 to 174 °C. Work on `CCCCCC(C=NN1CCN(CC2(C)Cn3cc([N+](=O)[O-])nc3O2)CC1)=Cc1ccccc1` (stereo not drawn) yielded a melting point of 166.6 to 169.6 °C. Work on `C[C@]1(COC(=O)N2CCc3cc(Cl)ccc3C2)Cn2cc([N+](=O)[O-])nc2O1` yielded a melting point of 180 to 182 °C. In the case of `CC1(CN2CCN(C(=O)COc3ccccc3)CC2)Cn2cc([N+](=O)[O-])nc2O1` (stereo not drawn), the melting point is reported as 158 to 160.6 °C. With `CC1(Cn2nc(-c3ccc(-c4ccccc4)cc3)oc2=O)Cn2cc([N+](=O)[O-])nc2O1` (stereo not drawn) the melting point was 248 to 249 °C. In the case of `CC1(CN2C(=O)c3ccccc3C2=O)Cn2cc([N+](=O)[O-])nc2O1` (stereo not drawn), the melting point is reported as 264.6 to 268.3 °C. For `O=C(OCc1ccc(C(F)(F)F)cc1)N1CCN(C(=O)N2CCC3(CC2)Cn2cc([N+](=O)[O-])nc2O3)CC1`, the melting point was 221 to 223 °C. `CC1(CO)Cn2cc([N+](=O)[O-])nc2O1` (stereo not drawn) showed a melting point of 166 to 168 °C. With `CC1(CN2CCC(=O)CC2)Cn2cc([N+](=O)[O-])nc2O1` (stereo not drawn) the melting point was 124 to 126 °C. In the case of `CC1(Cn2nc(-c3ccc(C(F)(F)F)cc3)oc2=O)Cn2cc([N+](=O)[O-])nc2O1` (stereo not drawn), the melting point is reported as 230 to 231 °C. Work on `CNC(C1CCN(c2ccc(C#N)cc2)CC1)[C@]1(C)Cn2cc([N+](=O)[O-])nc2O1` (stereo partly drawn) yielded a melting point of 149 to 152 °C. `COc1ccc(C(=O)N2CCN(CC3(C)Cn4cc([N+](=O)[O-])nc4O3)CC2)cc1` (stereo not drawn) gave a melting point of 135 to 137 °C. With `CC1(CCc2nnnn2-c2ccc(Cl)cc2)Cn2cc([N+](=O)[O-])nc2O1` (stereo not drawn) the melting point was 198 to 200 °C. With `CC1(CCCN2CCN(Cc3ccc(C(F)(F)F)cc3)CC2)Cn2cc([N+](=O)[O-])nc2O1` (stereo not drawn) the melting point was 154 to 156 °C. `CC1(CN2CCN(C(=O)Nc3ccc(C(F)(F)F)cc3)CC2)Cn2cc([N+](=O)[O-])nc2O1` (stereo not drawn) showed a melting point of 216 to 217 °C. For `CC1(CN2CCN(C(=S)Nc3ccccc3)CC2)Cn2cc([N+](=O)[O-])nc2O1` (stereo not drawn), the melting point was 164 to 165 °C (dec.). `C[C@]1(CN2CCN(C(=O)OCC=Cc3ccc(C(F)(F)F)cc3)CC2)Cn2cc([N+](=O)[O-])nc2O1` gave a melting point of 132 to 133 °C. With `CN(CCOc1ccc(OC(F)(F)F)cc1)CC1(C)Cn2cc([N+](=O)[O-])nc2O1` (stereo not drawn) the melting point was 86.4 to 89.2 °C. Work on `C[C@]1(CN2CCN(N=Cc3cc4cc(Cl)ccc4o3)CC2)Cn2cc([N+](=O)[O-])nc2O1` yielded a melting point of 213.8 to 215.7 °C. For `O=[N+]([O-])c1cn2c(n1)OC(CN1CCN(Cc3ccc(-c4ccccc4)cc3)CC1)C2` (stereo not drawn), the melting point was 183 to 185 °C (dec.). `C[C@]1(CN2CCN(C(=O)Nc3ccc(C(F)(F)F)cc3)CC2)Cn2cc([N+](=O)[O-])nc2O1` gave a melting point of 150 to 152.5 °C. `O=C(CN1CCN(CC(=O)N2CCC3(CC2)Cn2cc([N+](=O)[O-])nc2O3)CC1)Nc1ccc(C(F)(F)F)cc1` gave a melting point of 133 to 135 °C. For `C[C@]1(CN2CCN(C(=O)N3CC=C(c4ccc(C(F)(F)F)cc4)CC3)CC2)Cn2cc([N+](=O)[O-])nc2O1`, the melting point was 168.4 to 171.7 °C. For `C[C@]1(COC(=O)N(c2ccc(Cl)cc2)C2CCCCC2)Cn2cc([N+](=O)[O-])nc2O1`, the melting point was 175 to 177 °C. With `COc1ccc(CN2CCN(CC3(C)Cn4cc([N+](=O)[O-])nc4O3)C2=O)cc1` (stereo not drawn) the melting point was 158.6 to 160.5 °C. Work on `CC(C)(C)OC(=O)N1CCN(CC(=O)N2CCC3(CC2)Cn2cc([N+](=O)[O-])nc2O3)CC1` yielded a melting point of 211 to 213 °C. For `CNC(C1CCN(c2ccc(OC(F)(F)F)cc2)CC1)[C@]1(C)Cn2cc([N+](=O)[O-])nc2O1` (stereo partly drawn), the melting point was 127.2 to 129.7 °C. In the case of `C[C@]1(CN2CCN(S(=O)(=O)CCCc3ccc(Cl)cc3)CC2)Cn2cc([N+](=O)[O-])nc2O1`, the melting point is reported as 150 to 151 °C. `C[C@]1(COc2ccc(-n3ccnc3)cc2)Cn2cc([N+](=O)[O-])nc2O1` showed a melting point of 172 to 175 °C. Compound `CN(C(=O)OC[C@@]1(C)Cn2cc([N+](=O)[O-])nc2O1)c1ccc(Cl)cc1` has a melting point of 131 to 133 °C. For `C[C@]1(CN2CCN(c3cc(-c4ccccc4)nc(-c4ccccc4)n3)CC2)Cn2cc([N+](=O)[O-])nc2O1`, the melting point was 202.5 to 205.4 °C. With `CNC(C1CCN(C(=O)OCc2ccc(Cl)cc2)CC1)[C@]1(C)Cn2cc([N+](=O)[O-])nc2O1` (stereo partly drawn) the melting point was 116.2 to 116.6 °C. Compound `C[C@]1(CN2CCN(Cc3ccc(C(F)(F)F)cc3)CC2)Cn2cc([N+](=O)[O-])nc2O1` has a melting point of 110 to 112 °C. With `C[C@]1(CN2CCC([S+]([O-])c3ccc(OC(F)(F)F)cc3)CC2)Cn2cc([N+](=O)[O-])nc2O1` (stereo partly drawn) the melting point was 107 to 109 °C. With `CN(C)c1ccc(C(=O)N2CCN(CC3(C)Cn4cc([N+](=O)[O-])nc4O3)CC2)cc1` (stereo not drawn) the melting point was 204 to 207 °C. Compound `CN(CCOc1ccc(C(F)(F)F)cc1)C[C@@]1(C)Cn2cc([N+](=O)[O-])nc2O1` has a melting point of 123 to 126 °C. `CC1(CN2C(=O)C(F)(F)c3ccccc32)Cn2cc([N+](=O)[O-])nc2O1` (stereo not drawn) showed a melting point of 202 to 206 °C. With `C[C@]1(CN2CCC(OCCc3ccc(Cl)cc3)CC2)Cn2cc([N+](=O)[O-])nc2O1` the melting point was 92.5 to 94 °C. `O=[N+]([O-])c1cn2c(n1)OC(COc1ccc(N3CCC(Oc4ccc(OC(F)(F)F)cc4)CC3)cc1)C2` (stereo not drawn) gave a melting point of 173.2 to 177.3 °C. `C[C@]1(CN2CCC(OCCCc3ccc(Cl)cc3)CC2)Cn2cc([N+](=O)[O-])nc2O1` gave a melting point of 88.8 to 91.9 °C. For `CC1(Cn2c(=O)oc3ccc(Cl)cc32)Cn2cc([N+](=O)[O-])nc2O1` (stereo not drawn), the melting point was 207.6 to 207.9 °C. `CC(C)(C)OC(=O)N(CCc1ccc(C(F)(F)F)cc1)C1CCN(C[C@@]2(C)Cn3cc([N+](=O)[O-])nc3O2)CC1` gave a melting point of 206.8 to 208.6 °C. `CCOC(=O)N1CCN(c2ccc(OC[C@@]3(C)Cn4cc([N+](=O)[O-])nc4O3)cc2)CC1` showed a melting point of 210.5 to 212 °C. In the case of `CC(=NN1CCN(C[C@@]2(C)Cn3cc([N+](=O)[O-])nc3O2)CC1)c1ccc(Cl)cc1`, the melting point is reported as 164.6 to 166.5 °C. `CCCCCCn1c(=O)n(CC2(C)Cn3cc([N+](=O)[O-])nc3O2)c2cc(Cl)ccc21` (stereo not drawn) gave a melting point of 168.1 to 169.3 °C. Work on `O=C(Oc1ccccc1)N1CCC2(CC1)Cn1cc([N+](=O)[O-])nc1O2` yielded a melting point of 242 to 244 °C. With `C[C@]1(CN2CCC(N3CCN(C(=O)c4ccc(OC(F)(F)F)cc4)CC3)CC2)Cn2cc([N+](=O)[O-])nc2O1` the melting point was 137 to 138 °C. In the case of `CC1(CN2CCN(S(=O)(=O)CCc3ccc(Cl)cc3)CC2)Cn2cc([N+](=O)[O-])nc2O1` (stereo not drawn), the melting point is reported as 182 to 184 °C. Work on `O=[N+]([O-])c1cn2c(n1)O[C@H](CN1CCN(Cc3ccc(-c4ccccc4)cc3)CC1)C2` yielded a melting point of 224 to 225 °C. Compound `CC1(COC(=O)N2CC=C(c3ccc(C(F)(F)F)cc3)CC2)Cn2cc([N+](=O)[O-])nc2O1` (stereo not drawn) has a melting point of 113 to 115 °C. For `CC1(CN2CCN(Cc3ccccc3)C2=O)Cn2cc([N+](=O)[O-])nc2O1` (stereo not drawn), the melting point was 180.2 to 180.9 °C. `C[C@]1(CN2CCC(N3CCN(Cc4ccc(Cl)cc4)CC3)CC2)Cn2cc([N+](=O)[O-])nc2O1` gave a melting point of 148 to 149 °C. With `C[C@]1(COC(=O)N2CCc3cc(Cl)ccc32)Cn2cc([N+](=O)[O-])nc2O1` the melting point was 189 to 191 °C. With `CN1C(=O)C(C)(C)c2cc(COC(=O)N3CCN(C[C@@]4(C)Cn5cc([N+](=O)[O-])nc5O4)CC3)ccc21` the melting point was 80 to 100 °C (dec.). For `CC(=O)c1ccc(COC(=O)N2CCN(CC3(C)Cn4cc([N+](=O)[O-])nc4O3)CC2)cc1` (stereo not drawn), the melting point was 101 to 102 °C. For `CC1(Cn2nc(COc3ccc(Cl)cc3)oc2=O)Cn2cc([N+](=O)[O-])nc2O1` (stereo not drawn), the melting point was 64 to 66 °C. Work on `CC1(CN2CCC(Oc3ccc(OC(F)(F)F)cc3)CC2)Cn2cc([N+](=O)[O-])nc2O1` (stereo not drawn) yielded a melting point of 117 to 119 °C. `C[C@]1(CN2CCN(S(=O)(=O)CCc3ccc(Cl)cc3)CC2)Cn2cc([N+](=O)[O-])nc2O1` gave a melting point of 192 to 193 °C. In the case of `CC1(CN2CCN(C(=O)NC3CCCCC3)CC2)Cn2cc([N+](=O)[O-])nc2O1` (stereo not drawn), the melting point is reported as 216.5 to 218.5 °C. `C[C@]1(CN2CCN(C(=O)NC3CCCCC3)CC2)Cn2cc([N+](=O)[O-])nc2O1` showed a melting point of 98 to 101 °C. With `CC1(CNC(=O)OCc2ccc(Cl)cc2)Cn2cc([N+](=O)[O-])nc2O1` (stereo not drawn) the melting point was 221 to 221.8 °C. With `CC(C)(C)OC(=O)N1CCN(C(=O)OC[C@@]2(C)Cn3cc([N+](=O)[O-])nc3O2)CC1` the melting point was 211 to 212 °C. `C[C@]1(COc2ccc(C(=O)N3CCN(C(=O)OCc4ccc(OC(F)(F)F)cc4)CC3)cc2)Cn2cc([N+](=O)[O-])nc2O1` gave a melting point of 168.5 to 172 °C.
